Read-outs that look alike come from different tables or passages of the source. Where a SMILES comes first, the peptide text is derived from it. Where no end group is shown, it is not given here. [ ]: non-standard residue; d: D form. pY = N[C@@H](Cc1ccc(OP(=O)(O)O)cc1)C(=O)O
Legend:
Src SH2 domain = biological target: T1, Src SH2 domain (Homo sapiens, UniProt P12931); test: fluorescence polarization (FP) competition binding assay against fluorescent probe EPQ(pY)EEIPIYL(K-Flc); details: for IC50: concentration that reduces binding of fluorescein-labeled probe EPQ(pY)EEIPIYL(K-Flc) to the Src SH2 domain by 50%, 350 nM GST-Src SH2, 50 nM probe, 25°C, pH 7.3
T1 construct: 350 nM of GST-Src SH2 domain fusion protein
T1 sequence (P12931 151-248 limits assumed): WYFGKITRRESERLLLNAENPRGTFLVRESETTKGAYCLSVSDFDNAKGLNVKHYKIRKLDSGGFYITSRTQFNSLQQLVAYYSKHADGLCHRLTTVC
Protocol: The relative binding affinity of phosphopeptides to the Src SH2 domain was tested by competition against a fluorescent probe using a fluorescence polarization (FP) binding assay, [17], [18]. FP was measured at 25°C in a disposable glass tube, using a Beacon 2000 luminescence spectrometer equipped with an FP apparatus. The excitation and emission wavelengths were set at 485 and 535 nm, respectively. The fluorescent probe was the fluorescein (Flc)-labeled phosphopeptide EPQ(pY)EEIPIYL(K-Flc). For the competition assay, final concentrations of 350 nM of GST-Src SH2 domain fusion protein, 50 nM fluorescent probe, HEPES buffer (20 mM, pH 7.3, 100 mM NaCl, 2 mM DTT, 0.1% BSA) and various concentrations (0–100 µM) of each competitor peptide were used. A blank control (with the Src SH2 domain but without a peptide) and a background control (without both the Src SH2 domain and the peptide) were used. The inhibition percentage IP of fluorescent probe binding to the Src SH2 domain by the sample was calculated by the following equation: [drawing 1] where FP0 is the fluorescent polarization value of the blank control, FP is the fluorescent polarization value of the sample (peptide), and FPb is the fluorescent polarization value of the background control. The inhibition percentages of the various concentrations of the assayed peptides were plotted, and the IC50 value (the concentration that inhibits the binding of the fluorescent probe to the Src SH2 domain by 50%) was calculated.

Src SH2 = details: cited from earlier work

Molecule	IC50 (Src SH2 domain) [nM]	further results
N[C@@H](Cc1ccc(OP(=O)(O)O)cc1)C(=O)N[C@@H](CCC(=O)O)C(=O)N[C@@H](CCC(=O)O)C(=O)NCC(=O)O [pYEEG] (H-[pY]EEG-OH)	5700 ± 2100	–
pTyr-Val-Pro-Met-Leu ([pY]VPML) [phosphopeptide of the less specific Src SH2 crystal structure 1SHA]	–	Kd (Src SH2; complex of crystal structure 1SHA, read-out: Kd): 5500 nM
CC[C@H](C)[C@H](NC(=O)[C@H](CC(N)=O)NC(=O)[C@H](CCC(=O)O)NC(=O)[C@@H](N)Cc1ccc(OP(=O)(O)O)cc1)C(=O)O [pYENI, pTyr-Glu-Asn-Ile] (H-[pY]ENI-OH)	1000 ± 100	–
pTyr-Glu-Glu-Ile-Pro ([pY]EEIP)	–	Kd (Src SH2; complex of crystal structure 1SPS, read-out: affinity of the high-affinity complex with Src SH2): 80 to 200 nM
CC(C)[C@H](NC(=O)[C@H](CC(N)=O)NC(=O)[C@@H](NC(=O)[C@@H](N)Cc1ccc(OP(=O)(O)O)cc1)C(C)C)C(=O)O [pYVNV, pTyr-Val-Asn-Val-Ala]	–	est. ΔG (Src SH2 domain; estimated binding free energy from FP IC50): -6.96 kcal/mol
CC(C)[C@H](NC(=O)[C@H](CC(N)=O)NC(=O)[C@H](CCC(=O)O)NC(=O)[C@@H](N)Cc1ccc(OP(=O)(O)O)cc1)C(=O)O [pYENV] (H-[pY]ENV-OH)	2100 ± 700	–
